Where “and” joins values, the source holds several entries; their conditions need not be identical. Equal values may be shown once. Inconclusive results and toxic doses are left out.
System: L1210 leukemia ip in BDF1 mice, survival T/C
Assay: NCI In Vivo Anticancer Drug Screen. Data for tumor model L1210 Leukemia (intraperitoneal) in B6D2F1 (BDF1) mice
Details: endpoint: mean survival time, higher = longer survival
Procedure, shortened: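 Tumor was transplanted into mice, which were then dosed with test compound or vehicle alone. Survival was recorded for each group, and the treated figure was expressed relative to the control figure.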

[1] = dose: 100.0 mg/kg/injection, schedule: Q01DX009 (ip), vehicle: saline with Tween-80
[2] = dose: 100.0 mg/kg/injection, schedule: Q04DX002 (ip), vehicle: saline with Tween-80
[3] = dose: 100.0 mg/kg/injection, schedule: Q04DX003 (ip), vehicle: saline with Tween-80
[4] = dose: 200.0 mg/kg/injection, schedule: Q01DX009 (ip), vehicle: saline with Tween-80
[5] = dose: 200.0 mg/kg/injection, schedule: Q04DX002 (ip), vehicle: saline with Tween-80
[6] = dose: 200.0 mg/kg/injection, schedule: Q04DX003 (ip), vehicle: saline with Tween-80
[7] = dose: 400.0 mg/kg/injection, schedule: Q01DX009 (ip), vehicle: saline with Tween-80
[8] = dose: 400.0 mg/kg/injection, schedule: Q04DX002 (ip), vehicle: saline with Tween-80
[9] = dose: 400.0 mg/kg/injection, schedule: Q04DX003 (ip), vehicle: saline with Tween-80
[10] = dose: 50.0 mg/kg/injection, schedule: Q01DX009 (ip), vehicle: Klucel (hydroxypropylcellulose) (HPC)
[11] = dose: 100.0 mg/kg/injection, schedule: Q04DX003 (ip), vehicle: Klucel (hydroxypropylcellulose) (HPC)
[12] = dose: 200.0 mg/kg/injection, schedule: Q04DX003 (ip), vehicle: Klucel (hydroxypropylcellulose) (HPC)
[13] = dose: 150.0 mg/kg/injection, schedule: Q01DX001 (ip), vehicle: other
[14] = dose: 100.0 mg/kg/injection, schedule: Q01DX001 (ip), vehicle: carboxymethylcellulose (CMC)
[15] = dose: 200.0 mg/kg/injection, schedule: Q01DX001 (ip), vehicle: carboxymethylcellulose (CMC)
[16] = dose: 100.0 mg/kg/injection, schedule: Q01DX001 (ip), vehicle: saline
[17] = dose: 200.0 mg/kg/injection, schedule: Q01DX001 (ip), vehicle: saline

In the case of `NC(=O)OCCCl`, the T/C (dose: 100.0 mg/kg/injection, schedule: Q04DX002 (ip), vehicle: saline) is reported as 98 % of control, the T/C (dose: 200.0 mg/kg/injection, schedule: Q04DX002 (ip), vehicle: saline) is reported as 109 % of control and the T/C (dose: 400.0 mg/kg/injection, schedule: Q04DX002 (ip), vehicle: saline) is reported as 102 % of control.
With `O=C(NC(=S)Nc1ccc(Cl)c(Cl)c1)c1ccc(Cl)cc1Cl` the T/C (dose: 100.0 mg/kg/injection, schedule: Q01DX001 (ip), vehicle: saline with Tween-80) was 93 % of control, the T/C [1] was 97 % of control and 98 % of control and the T/C [2] was 98 % of control and 90 % of control. The T/C [3] was 93 % of control, the T/C (dose: 200.0 mg/kg/injection, schedule: Q01DX001 (ip), vehicle: saline with Tween-80) was 89 % of control and the T/C [4] was 91 % of control and 92 % of control. The T/C [5] was 101 % of control, the T/C [6] was 93 % of control and the T/C [7] was 87 % of control and 91 % of control. For the same compound, the T/C [8] was 95 % of control and 90 % of control and the T/C [9] was 93 % of control.
For `CCOC(=O)CN=C(C)OCC`, the T/C [1] was 100 % of control, the T/C [3] was 107 % of control and the T/C [4] was 99 % of control. For the same compound, the T/C [6] was 97 % of control, the T/C [7] was 90 % of control and the T/C [9] was 103 % of control.
For `CS(=O)(=O)N1C=CC=CC=C1`, the T/C (dose: 12.5 mg/kg/injection, schedule: Q01DX009 (ip), vehicle: Klucel (hydroxypropylcellulose) (HPC)) was 91 % of control, the T/C (dose: 12.5 mg/kg/injection, schedule: Q04DX003 (ip), vehicle: Klucel (hydroxypropylcellulose) (HPC)) was 96 % of control and the T/C (dose: 25.0 mg/kg/injection, schedule: Q01DX009 (ip), vehicle: Klucel (hydroxypropylcellulose) (HPC)) was 95 % of control. For the same compound, the T/C (dose: 25.0 mg/kg/injection, schedule: Q04DX003 (ip), vehicle: Klucel (hydroxypropylcellulose) (HPC)) was 98 % of control, the T/C [10] was 95 % of control and the T/C (dose: 50.0 mg/kg/injection, schedule: Q04DX003 (ip), vehicle: Klucel (hydroxypropylcellulose) (HPC)) was 105 % of control.
With `O=c1nc2n(O)cccc-2c(=O)[nH]1` the T/C [10] was 96 % of control, the T/C (dose: 100.0 mg/kg/injection, schedule: Q01DX009 (ip), vehicle: Klucel (hydroxypropylcellulose) (HPC)) was 100 % of control and the T/C [11] was 96 % of control. For the same compound, the T/C (dose: 200.0 mg/kg/injection, schedule: Q01DX009 (ip), vehicle: Klucel (hydroxypropylcellulose) (HPC)) was 101 % of control and the T/C [12] was 102 % of control.
For `O=NN(CCCl)C(=O)NC1CCC(NC(=O)N(CCCl)N=O)CC1` (stereo unspecified), the T/C (dose: 44.0 mg/kg/injection, schedule: Q01DX001 (ip), vehicle: other) was 162 % of control and 286 % of control, the T/C (dose: 63.0 mg/kg/injection, schedule: Q01DX001 (ip), vehicle: carboxymethylcellulose (CMC)) was 247 % of control and the T/C (dose: 67.0 mg/kg/injection, schedule: Q01DX001 (ip), vehicle: other) was 168 % of control and 328 % of control. For the same compound, the T/C (dose: 82.0 mg/kg/injection, schedule: Q01DX001 (ip), vehicle: carboxymethylcellulose (CMC)) was 267 % of control, the T/C (dose: 100.0 mg/kg/injection, schedule: Q01DX001 (ip), vehicle: other) was 305 % of control and 314 % of control and the T/C (dose: 125.0 mg/kg/injection, schedule: Q01DX001 (ip), vehicle: carboxymethylcellulose (CMC)) was 310 % of control. For the same compound, the T/C (dose: 127.0 mg/kg/injection, schedule: Q01DX001 (ip), vehicle: carboxymethylcellulose (CMC)) was 342 % of control, the T/C [13] was 268 % of control and 180 % of control and the T/C (dose: 187.0 mg/kg/injection, schedule: Q01DX001 (ip), vehicle: carboxymethylcellulose (CMC)) was 290 % of control. For the same compound, the T/C (dose: 225.0 mg/kg/injection, schedule: Q01DX001 (ip), vehicle: other) was 285 % of control and 178 % of control, the T/C (dose: 255.0 mg/kg/injection, schedule: Q01DX001 (ip), vehicle: carboxymethylcellulose (CMC)) was 344 % of control and the T/C (dose: 280.0 mg/kg/injection, schedule: Q01DX001 (ip), vehicle: carboxymethylcellulose (CMC)) was 275 % of control. The T/C (dose: 337.0 mg/kg/injection, schedule: Q01DX001 (ip), vehicle: other) was 306 % of control and the T/C (dose: 510.0 mg/kg/injection, schedule: Q01DX001 (ip), vehicle: carboxymethylcellulose (CMC)) was 181 % of control.
With `CC(=O)N1CCc2cc(N)ccc21` the T/C [4] was 103 % of control.
With `CC(C)(C)NC(=O)/C=C\C(=O)O` the T/C (dose: 100.0 mg/kg/injection, schedule: Q01DX009 (ip), vehicle: gum acacia) was 98 % of control, the T/C [11] was 103 % of control and the T/C (dose: 200.0 mg/kg/injection, schedule: Q01DX009 (ip), vehicle: gum acacia) was 95 % of control. The T/C [12] was 105 % of control, the T/C (dose: 400.0 mg/kg/injection, schedule: Q01DX009 (ip), vehicle: gum acacia) was 90 % of control and the T/C (dose: 400.0 mg/kg/injection, schedule: Q04DX003 (ip), vehicle: Klucel (hydroxypropylcellulose) (HPC)) was 92 % of control.
With `C/C(=C/C(=O)O)C(=O)Nc1cccc2c(NC(=O)/C(C)=C/C(=O)O)cccc12` the T/C [14] was 95 % of control, the T/C [15] was 96 % of control and the T/C (dose: 400.0 mg/kg/injection, schedule: Q01DX001 (ip), vehicle: carboxymethylcellulose (CMC)) was 96 % of control.
`O=C(Nc1scc2c1sc1ccccc12)c1ccccc1` was tested, and the T/C (dose: 100.0 mg/kg/injection, schedule: Q01DX001 (ip), vehicle: Klucel (hydroxypropylcellulose) (HPC)) was 93 % of control, the T/C (dose: 200.0 mg/kg/injection, schedule: Q01DX001 (ip), vehicle: Klucel (hydroxypropylcellulose) (HPC)) was 93 % of control and the T/C (dose: 400.0 mg/kg/injection, schedule: Q01DX001 (ip), vehicle: Klucel (hydroxypropylcellulose) (HPC)) was 107 % of control.
`CCC(C)C(CN)(CCCN1CCCCC1)c1cccc2ccccc12` (stereo unspecified) was tested, and the T/C (dose: 100.0 mg/kg/injection, schedule: Q04DX003 (ip), vehicle: saline) was 97 % of control and the T/C (dose: 200.0 mg/kg/injection, schedule: Q04DX003 (ip), vehicle: saline) was 95 % of control.
In the case of `O=[As](O)(c1cccc(Cl)c1)C1CCCCC1O` (stereo unspecified), the T/C (dose: 25.0 mg/kg/injection, schedule: Q04DX003 (ip), vehicle: saline with Tween-80) is reported as 91 % of control and the T/C (dose: 50.0 mg/kg/injection, schedule: Q04DX003 (ip), vehicle: saline with Tween-80) is reported as 89 % of control.
For `NC(N)=NCCc1ccc(Cl)cc1`, the T/C (dose: 50.0 mg/kg/injection, schedule: Q01DX001 (ip), vehicle: Klucel (hydroxypropylcellulose) (HPC)) was 102 % of control.
With `Cc1ccc(NC(=O)OCCN(CCOC(=O)Nc2ccc(C)cc2)c2cccc(C)c2)cc1` the T/C [16] was 94 % of control, the T/C [17] was 90 % of control and the T/C (dose: 400.0 mg/kg/injection, schedule: Q01DX001 (ip), vehicle: saline) was 94 % of control.
`O=C(O)c1cccc(N2C(=O)C=CC2=O)c1` was tested, and the T/C (dose: 25.0 mg/kg/injection, schedule: Q04DX002 (ip), vehicle: Klucel (hydroxypropylcellulose) (HPC)) was 101 % of control and the T/C (dose: 50.0 mg/kg/injection, schedule: Q04DX002 (ip), vehicle: Klucel (hydroxypropylcellulose) (HPC)) was 101 % of control.
`CC1CC(=O)NC(=O)N1` (stereo unspecified) was tested, and the T/C [1] was 98 % of control, the T/C [3] was 105 % of control and the T/C [4] was 100 % of control. The T/C [6] was 93 % of control, the T/C [7] was 106 % of control and the T/C [9] was 107 % of control.
`[Br][Ge]([c]1ccccc1)([c]1ccccc1)[c]1ccccc1` was tested, and the T/C (dose: 25.0 mg/kg/injection, schedule: Q04DX002 (ip), vehicle: saline with Tween-80) was 104 % of control, the T/C (dose: 50.0 mg/kg/injection, schedule: Q04DX002 (ip), vehicle: saline with Tween-80) was 96 % of control and the T/C [2] was 104 % of control. For the same compound, the T/C [3] was 94 % of control, the T/C [5] was 93 % of control and the T/C [6] was 94 % of control. For the same compound, the T/C [9] was 90 % of control.
In the case of `O=C(O)c1cc(I)c(I)c(I)c1`, the T/C [3] is reported as 97 % of control and the T/C [6] is reported as 101 % of control.
In the case of `O=C1C2=C(CCC2)c2ccccc21`, the T/C [16] is reported as 103 % of control and the T/C [17] is reported as 96 % of control.
In the case of `NNc1ccccc1Cl`, the T/C (dose: 50.0 mg/kg/injection, schedule: Q01DX001 (ip), vehicle: carboxymethylcellulose (CMC)) is reported as 108 % of control, the T/C (dose: 75.0 mg/kg/injection, schedule: Q01DX001 (ip), vehicle: other) is reported as 102 % of control and the T/C [14] is reported as 97 % of control. The T/C [13] was 93 % of control and the T/C [15] was 108 % of control.
In the case of `CSc1ccc(NC(=O)Nc2ccc([N+](=O)[O-])cc2C)cc1`, the T/C [2] is reported as 98 % of control, the T/C [5] is reported as 95 % of control and the T/C [8] is reported as 91 % of control.
For `O=[N+]([O-])c1nncs1`, the T/C (dose: 6.25 mg/kg/injection, schedule: Q04DX003 (ip), vehicle: saline) was 104 % of control, the T/C (dose: 12.5 mg/kg/injection, schedule: Q04DX003 (ip), vehicle: saline) was 98 % of control and the T/C (dose: 25.0 mg/kg/injection, schedule: Q04DX003 (ip), vehicle: saline) was 101 % of control.

Reference: PubChem BioAssay AID248 (DTP/NCI, 2004)
